Experimental data: patent publication US20250195551A1 (L4 BIO LLC, priority 2023, published 2025)

What was measured:
[1] = Excipient compatibility study; format: physicochemical; conditions: for Total Impurities % (excluding API impurities %) / Chromatographic purity by HPLC (Assay): 40° C./75% RH
Experimental: An excipient compatibility study was initiated with selected excipients ranging from oils to surfactants based on equilibrium solubility results (Table 2). […] After solutions were prepared using a hand-held homogenizer (Model IKAT10 Ultra-Turrax), each excipient sample was aliquoted in amber vials, approximately 10% water was added in each excipient aliquot, and bench scale gel stripe OET-004037 was also made and added in a separate set of aliquot samples at approximately 1:1 w/w.
All samples were stored at 40° C./75% relative humidity (RH) condition (Model: Lunaire environmental chamber) and tested by developmental reversed phase HPLC method for Assay/Related Substances at T=0, 2 weeks, and 1 month.

[2] = Pharmacokinetic profiles of Ivermectin B1a in Sprague Dawley rat plasma after IV and oral administration; format: in vivo, Sprague Dawley rats; conditions: Ivermectin B1a in SD rat plasma; single IV 2 mg/kg; fasting; male
Experimental: Thirty-six male Sprague Dawley rats were randomly assigned into four groups, with nine male rats in each group. All animals in all groups are fasted overnight prior to the experimental date.
Blood samples were collected from 6 of 9 animals per group at 0.5, 1, 2, 3, 4, 6, 8, 24, 72, 120, 168 hours post-dose.

[3] = target: T1, purinergic P2X4 receptors (Homo sapiens, UniProt Q99571); conditions: interaction with purinergic P2X4 receptors in humans; cited from earlier work
T1 sequence (Q99571 1-388): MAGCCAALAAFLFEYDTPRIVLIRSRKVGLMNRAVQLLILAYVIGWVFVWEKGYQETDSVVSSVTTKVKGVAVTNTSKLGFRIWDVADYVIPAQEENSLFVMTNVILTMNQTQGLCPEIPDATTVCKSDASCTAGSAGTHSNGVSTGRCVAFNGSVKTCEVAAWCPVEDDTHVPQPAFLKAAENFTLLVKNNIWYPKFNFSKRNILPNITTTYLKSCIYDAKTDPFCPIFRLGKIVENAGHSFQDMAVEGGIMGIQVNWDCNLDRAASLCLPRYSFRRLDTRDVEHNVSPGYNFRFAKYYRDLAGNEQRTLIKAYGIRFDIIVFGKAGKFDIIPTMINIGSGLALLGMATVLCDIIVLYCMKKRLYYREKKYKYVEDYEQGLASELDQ

[4] = target: 7-aminobutyric acid A (GABAA) receptor; conditions: interaction with GABAA receptor in humans; cited from earlier work
[5] = target: neuronal alpha-7-nicotinic receptor (Homo sapiens, UniProt P36544); conditions: interaction with neuronal alpha-7-nicotinic receptor in humans; cited from earlier work
[6] = Solubility determination of ivermectin in excipients
Experimental: The solubility assessments were performed by continually adding a known amount of the API into each individual excipient and letting the excipient reach solubility equilibrium via API saturation (visible solid observed). The experiments were conducted at ambient conditions (25° C.) and were left to mix on a stir plate at 500 RPM for at least 72 hours.

[7] = in PEG 400, Sample: Control, T = 2 weeks
[8] = in PEG 400, Sample: Gel Stripe (1:1 w/w), T = 2 weeks
[9] = in Tween 80, Sample: 10% water, T = 1 months
[10] = in Tween 80, Sample: 10% water, T = 2 weeks
[11] = in Tween 80, Sample: Control, T = 0
[12] = in Tween 80, Sample: Control, T = 1 months
[13] = in Tween 80, Sample: Control, T = 2 weeks
[14] = in Tween 80, Sample: Gel Stripe (1:1 w/w), T = 1 months
[15] = in Tween 80, Sample: Gel Stripe (1:1 w/w), T = 2 weeks
[16] = in Vitamin E TPGS, Sample: 10% water, T = 1 months
[17] = in Vitamin E TPGS, Sample: 10% water, T = 2 weeks
[18] = in Vitamin E TPGS, Sample: Control, T = 0
[19] = in Vitamin E TPGS, Sample: Control, T = 1 months
[20] = in Vitamin E TPGS, Sample: Control, T = 2 weeks
[21] = in Vitamin E TPGS, Sample: Gel Stripe (1:1 w/w), T = 1 months
[22] = in Vitamin E TPGS, Sample: Gel Stripe (1:1 w/w), T = 2 weeks

Chain of neuronal alpha-7-nicotinic receptor (P36544 23-502): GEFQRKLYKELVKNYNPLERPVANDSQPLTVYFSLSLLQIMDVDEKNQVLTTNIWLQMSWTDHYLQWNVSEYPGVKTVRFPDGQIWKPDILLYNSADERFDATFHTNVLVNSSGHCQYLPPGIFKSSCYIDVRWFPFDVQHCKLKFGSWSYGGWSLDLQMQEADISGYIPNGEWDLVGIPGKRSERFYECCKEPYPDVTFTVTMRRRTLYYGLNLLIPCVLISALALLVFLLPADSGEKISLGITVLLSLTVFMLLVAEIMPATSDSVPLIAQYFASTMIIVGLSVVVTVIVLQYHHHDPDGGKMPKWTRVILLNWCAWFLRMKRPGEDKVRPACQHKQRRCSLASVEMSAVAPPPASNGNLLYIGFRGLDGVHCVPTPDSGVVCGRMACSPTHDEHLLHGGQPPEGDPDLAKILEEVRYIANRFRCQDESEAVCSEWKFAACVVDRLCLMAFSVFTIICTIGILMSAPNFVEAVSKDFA

## ivermectin
[1]; in PEG 400, Sample: Control, T = 0
  Total Impurities % (excluding API impurities %): 0.10 % adjusted area
[1]; [7]
  Chromatographic purity by HPLC (Assay): 89.36 % area
  Total Impurities % (excluding API impurities %): 8.54 % adjusted area
[1]; [8]
  Chromatographic purity by HPLC (Assay): 96.92 % area
  Total Impurities % (excluding API impurities %): 0.50 % adjusted area
[1]; [9]
  Chromatographic purity by HPLC (Assay): 91.18 % area
  Total Impurities % (excluding API impurities %): 6.94 % adjusted area
[1]; [10]
  Chromatographic purity by HPLC (Assay): 93.02 % area
  Total Impurities % (excluding API impurities %): 3.53 % adjusted area
[1]; [11]
  Chromatographic purity by HPLC (Assay): 97.53 % area
  Total Impurities % (excluding API impurities %): 0.16 % adjusted area
[1]; [12]
  Chromatographic purity by HPLC (Assay): 88.45 % area
  Total Impurities % (excluding API impurities %): 10.55 % adjusted area
[1]; [13]
  Chromatographic purity by HPLC (Assay): 91.87 % area
  Total Impurities % (excluding API impurities %): 4.86 % adjusted area
[1]; [14]
  Chromatographic purity by HPLC (Assay): 93.51 % area
  Total Impurities % (excluding API impurities %): 4.22 % adjusted area
[1]; [15]
  Chromatographic purity by HPLC (Assay): 93.97 % area
  Total Impurities % (excluding API impurities %): 2.43 % adjusted area
[1]; [16]
  Chromatographic purity by HPLC (Assay): 97.46 % area
  Total Impurities % (excluding API impurities %): <LOQ
[1]; [17]
  Chromatographic purity by HPLC (Assay): 96.99 % area
  Total Impurities % (excluding API impurities %): 0.42 % adjusted area
[1]; [18]
  Chromatographic purity by HPLC (Assay): 97.74 % area
  Total Impurities % (excluding API impurities %): <LOQ
[1]; [19]
  Chromatographic purity by HPLC (Assay): 97.37 % area
  Total Impurities % (excluding API impurities %): 0.11 % adjusted area
[1]; [20]
  Chromatographic purity by HPLC (Assay): 97.43 % area
  Total Impurities % (excluding API impurities %): <LOQ
[1]; [21]
  Chromatographic purity by HPLC (Assay): 97.74 % area
  Total Impurities % (excluding API impurities %): <LOQ
[1]; [22]
  Chromatographic purity by HPLC (Assay): 97.50 % area
  Total Impurities % (excluding API impurities %): <LOQ
[1]; oily vehicles including Maisine CC, fractionated coconut oil, and oleic acid
  Chemical compatibility with the API: good chemical compatibility
[2]
  AUC(0-t): 8259.31 ± 1032.95 ng·h/mL
  AUC(0-∞): 8273.53 ng·h/mL
  Cmax: 1722.67 ng/mL
  MRT(0-t): 10.58 h
  MRT(0-∞): 10.81 h
  T1/2: 14.82 ± 0.72 h
  Tmax: 30 min
[3]
  EC50: ~250 nM
[4]
  EC50: ~920 nM
[5]
  EC50: ~30 µM
[6]; in Capryol 90, 25° C.
  Solubility: 150.92 mg/g
[6]; in Fractionated Coconut oil, 25° C.
  Solubility: 16.55 mg/g
[6]; in Glycerin, 25° C.
  Solubility: <0.1 mg/g
[6]; in Kolliphor EL, 25° C.
  Solubility: 95.85 mg/g
[6]; in Labrafil M 2125 CS, 25° C.
  Solubility: 35.32 mg/g
[6]; in Labrasol ALF, 25° C.
  Solubility: 126.36 mg/g
[6]; in LauroglycolTM FCC, 25° C.
  Solubility: 71.96 mg/g
[6]; in Maisine CC, 25° C.
  Solubility: 60.17 mg/g
[6]; in Masester E8120, 25° C.
  Solubility: 164.06 mg/g
[6]; in Medium Chain Triglyceride, 25° C.
  Solubility: 16.49 mg/g
[6]; in Oleic acid, 25° C.
  Solubility: 48.58 mg/g
[6]; in Olive oil, 25° C.
  Solubility: 4.71 mg/g
[6]; in PEG 400, 25° C.
  Solubility: 112.92 mg/g
[6]; in Propylene glycol, 25° C.
  Solubility: 25.61 mg/g
[6]; in Soybean oil, 25° C.
  Solubility: 6.72 mg/g
[6]; in Span 20, 25° C.
  Solubility: 97.66 mg/g
[6]; in Span 80, 25° C.
  Solubility: 54.04 mg/g
[6]; in Triacetin, 25° C.
  Solubility: 58.75 mg/g
[6]; in Tween 80, 25° C.
  Solubility: 88.26 mg/g
[6]; in Vitamin E TPGS, table title 25° C., text: conducted at 40° C.
  Solubility: 82.98 mg/g
